Laboratory results taken from patent US20120301551A1, “COMPOUNDS AND COMPOSITIONS FOR TREATING NEURONAL DEATH OR NEUROLOGICAL DYSFUNCTION” (Neurotech Pharmaceuticals Co., Ltd., priority 2005, published 2012).
Read-outs that look alike come from different tables or passages of the source.

What was measured:
[1] = test system: mixed cortical cell cultures containing neurons and glia; experiment: Fe2+-induced free radical neurotoxicity in mixed cortical cell cultures (LDH release); assay type: cell-based, mouse; conditions: 50 μM FeCl2, neuronal death 24 hr later (LDH), read-out: IC50 (50% protection against Fe^2+-induced free radical neurotoxicity)
Experimental: Mouse cortical cell cultures (DIV 11-15) were exposed to 50 μM Fe^2+ or 10 mM BSO, alone or with inclusion of 5 mM Li^+. Neuronal death was analyzed 24 hr later by measuring levels of LDH released into the bathing medium, mean±SEM (n=9-12 culture wells per condition).
Mouse cortical cell cultures (DIV 11-15) were exposed to 30 μM Fe^2+ or 10 mM BSO, alone or in the presence of 1 μM 2-hydroxy TTBA, 10-100 μM vitamin E, or 5 mM Li^+.
For mixed neuron-glia culture, mouse cerebral cortices were removed from brains of the 11-15 day-old-fetal mice (E11-15), gently triturated and plated on 24 well plates (2×10^5 cells/plate) precoated with 100 μg/ml poly-D-lysine and 4 pg/ml laminin. Cultures were maintained at 37° C. in a humidified 5% CO2 atmosphere.
After 7-8 days in vitro (DIV 7-8), 10 μM cytosine arabinofuranoside (Ara-C) was included to halt overgrowth of glia. The drug treatment was carried on DIV 11-15 cortical cell culture.
Oxidative stress was induced by exposing mixed cortical cell cultures containing neurons and glia (DIV 11-15) to 50 μM FeCl2, a hydroxyl radical-producing transition metal via a Fenton reaction, or 10 mM DL-buthionine-[S,R]-sulfoximine (BSO), a glutathione depleting agent.

cerebral cortical cell = experiment: anti-oxidant effect: neuron protecting effect against Fe+2 (50 uM FeCl2); assay type: cell-based; conditions: cerebral cortical cell treated by 50 uM FeCl2
Experimental: After cerebral cortical cell was treated by 50 uM FeCl2 to induce oxidative stress, the anti-oxidant effects of many compounds were evaluated. Results were shown as IC50 (uM) (Item A of Table 3 below).
(§1) In the Table 3, A, B and C mean neuron protecting effect against Fe^+2, suppressing effect on production of NO and suppressing effect on production of beta-amyloid, respectively. The term “ND” means “Not determined.”

[2] = test system: BV-2 cell line (production of NO); experiment: anti-inflammatory effect: suppression of LPS-induced production of NO; assay type: cell-based; conditions: BV-2 cell line treated by LPS; for IC50: read-out: IC50 (uM) B: suppressing effect on production of NO
Experimental: After BV-2 cell line was treated by LPS to induce production of NO, the anti-inflammatory effects of many compounds were evaluated. Results were shown as IC50 (uM) (Item B of Table 3 below).
as §1

beta-amyloid (Aβ42) = experiment: suppression of beta-amyloid (Aβ42) production in CHO cells (ELISA); assay type: cell-based, Chinese hamster
Experimental: The suppressing effects of many drug candidates on production of beta-amyloid were evaluated in CHO cell line having the increased level of beta-amyloid. Results were shown as IC50 (uM) (Item C of Table 3 below).
as §1
Cells were treated with increasing concentrations of various chemicals in Chinese hamster ovary (CHO) cells stably transfected with human wild APP695 and the PS1ΔExon9, and analyzed Aβ42 levels in culture medium by colorimetric sandwich ELISA kit (BIOSOURCE, Camarillo, Calif.). In CHO cells, IC50 of Chemical—01-08 on Aβ42 lowering effect was 20-100 uM (Table 4).

[3] = Cricetulus griseus, CHO cell line having the increased level of beta-amyloid, read-out: IC50 (uM) C: suppressing effect on production of beta-amyloid
[4] = CHO cell line having the increased level of beta-amyloid
[5] = CHO cell line having the increased level of beta-amyloid, read-out: IC50 (uM) C: suppressing effect on production of beta-amyloid
[6] = Cricetulus griseus, CHO cells stably transfected with human wild APP695 and PS1ΔExon9, culture medium, ELISA, read-out: Aβ42 lowering effect (IC50)

Structure (SMILES)	IC50 (cerebral cortical cell; Neuron) [µM]	IC50 ([2]; Mus musculus) [µM]	further results
O=C(O)c1cc(NCc2ccc(Cl)cc2)ccc1O [CBAS]	–	–	IC50 [1]: 0.2 µM
O=C(O)c1cc(NCCc2ccc(C(F)(F)F)cc2)ccc1O [Compound 01]	0.099	24.3	IC50 (beta-amyloid (Aβ42); [3]): 19.6 µM
O=C(O)c1cc(NCCc2ccccc2)ccc1O [Compound 02]	1.04	> 100	–
O=C(O)c1cc(NCCc2ccccc2C(F)(F)F)ccc1O [Compound 03]	0.1	33	–
O=C(O)c1cc(NCCc2cccc(C(F)(F)F)c2)ccc1O [Compound 04]	0.08	26.1	–
COc1ccc(CCNc2ccc(O)c(C(=O)O)c2)cc1 [Compound 05]	0.11	60.3	–
O=C(O)c1cc(NCCc2cc(F)ccc2F)ccc1O [Compound 06]	0.27	82.2	–
O=C(O)c1cc(NCCc2ccccc2Cl)ccc1O [Compound 07]	0.11	60.8	IC50 (beta-amyloid (Aβ42); [3]): 19.1 µM
O=C(O)c1cc(NCCc2cccc(Cl)c2)ccc1O [Compound 08]	0.23	76.5	–
O=C(O)c1cc(NCCc2ccccc2Br)ccc1O [Compound 09]	0.14	78.8	–
O=C(O)c1cc(NCCc2cccc(Br)c2)ccc1O [Compound 10]	0.23	–	IC50 (uM) B: suppressing effect on production of NO [2]: No
Cc1ccc(CCNc2ccc(O)c(C(=O)O)c2)cc1 [Compound 11]	0.24	23.9	–
O=C(O)c1cc(NCCc2c(F)cccc2F)ccc1O [Compound 12]	0.36	62.7	–
COc1ccccc1CCNc1ccc(O)c(C(=O)O)c1 [Compound 13]	0.27	94	–
O=C(O)c1cc(NCCc2ccc(Cl)cc2)ccc1O [Compound 14]	0.11	> 100	–
COc1cccc(CCNc2ccc(O)c(C(=O)O)c2)c1 [Compound 15]	0.32	–	IC50 (uM) B: suppressing effect on production of NO [2]: No
O=C(O)c1cc(NCCc2ccc(F)cc2F)ccc1O [Compound 17]	0.21	> 300	–
O=C(O)c1cc(NCCc2ccc(Cl)c(Cl)c2)ccc1O [Compound 18]	0.1	63.2	–
O=C(O)c1cc(NCCc2cccc(F)c2)ccc1O [Compound 19]	0.26	82.6	–
O=C(O)c1cc(NCCc2ccccc2[N+](=O)[O-])ccc1O [Compound 20]	0.4	12.5	–
O=C(O)c1cc(NCCc2ccc(F)c(F)c2)ccc1O [Compound 21]	0.32	23.7	IC50 (beta-amyloid (Aβ42); [3]): 68 µM
O=C(O)c1cc(NCCc2cc(F)cc(F)c2)ccc1O [Compound 22]	0.25	135	–
O=C(O)c1cc(NCCc2ccccc2F)ccc1O [Compound 23]	0.11	34.9	–
O=C(O)c1cc(NCCc2ccc(Cl)cc2Cl)ccc1O [Compound 24]	0.031	40.8	IC50 (beta-amyloid (Aβ42); [3]): 29.2 µM
Cc1ccccc1CCNc1ccc(O)c(C(=O)O)c1 [Compound 25]	0.07	18.6	IC50 (uM) C: suppressing effect on production of beta-amyloid (beta-amyloid (Aβ42); [4]): No
O=C(O)c1cc(NCCc2cccc(C(F)(F)F)c2F)ccc1O [Compound 26]	0.13	61.7	IC50 (beta-amyloid (Aβ42); [3]): > 100 µM
O=C(O)c1cc(NCCc2cc(C(F)(F)F)cc(C(F)(F)F)c2)ccc1O [Compound 27]	–	–	IC50 (cerebral cortical cell): 0.044 µM; IC50 [2]: 6.25 µM; IC50 (beta-amyloid (Aβ42); [5]): 109 µM

Structure (SMILES)	IC50 (cerebral cortical cell; Neuron) [µM]	IC50 ([2]; Mus musculus) [µM]	further results
O=C(O)c1cc(NCCCc2ccc(F)cc2)ccc1O [Compound 28]	0.12	20.3	–
CCOc1ccc(CCNc2ccc(O)c(C(=O)O)c2)cc1 [Compound 29]	0.18	42.2	–
Cc1cccc(CCNc2ccc(O)c(C(=O)O)c2)c1 [Compound 30]	0.39	23.6	IC50 (uM) C: suppressing effect on production of beta-amyloid (beta-amyloid (Aβ42); [4]): No
O=C(O)c1cc(NCCc2ccc(F)cc2C(F)(F)F)ccc1O [Compound 31]	0.25	4.08	–
O=C(O)c1cc(NCCCc2ccccc2)ccc1O [Compound 32]	0.29	85.4	–
O=C(O)c1cc(NCCc2ccc(F)c(C(F)(F)F)c2)ccc1O [Compound 33]	–	–	IC50 (cerebral cortical cell): 0.036 µM; IC50 [2]: 31.1 µM; IC50 (beta-amyloid (Aβ42); [5]): > 100 µM
O=C(O)c1cc(NCCc2cc(F)cc(C(F)(F)F)c2)ccc1O [Compound 34]	0.13	98.8	IC50 (uM) C: suppressing effect on production of beta-amyloid (beta-amyloid (Aβ42); [4]): No
O=C(O)c1cc(NCCCc2ccc(F)c(F)c2)ccc1O [Compound 35]	0.035	67.5	IC50 (beta-amyloid (Aβ42); [3]): > 100 µM
O=C(O)c1cc(NCCc2ccc(C(F)(F)F)cc2F)ccc1O [Compound 36]	0.06	99.8	IC50 (beta-amyloid (Aβ42); [3]): > 100 µM
O=C(O)c1cc(NCCc2cc(F)ccc2C(F)(F)F)ccc1O [Compound 37]	0.27	> 100	–
O=C(O)c1cc(NCCc2cc(C(F)(F)F)ccc2F)ccc1O [Compound 38]	0.069	35	IC50 (uM) C: suppressing effect on production of beta-amyloid (beta-amyloid (Aβ42); [4]): No
O=C(O)c1cc(NCCc2ccc(F)cc2)ccc1O [Compound 39]	0.31	–	IC50 (uM) B: suppressing effect on production of NO [2]: No
O=C(O)c1cc(NCCCCc2ccccc2)ccc1O [Compound 40]	0.073	> 100	IC50 (uM) C: suppressing effect on production of beta-amyloid (beta-amyloid (Aβ42); [4]): No
Cc1ccc(CCCNc2ccc(O)c(C(=O)O)c2)cc1 [Compound 41]	0.11	26.5	IC50 (uM) C: suppressing effect on production of beta-amyloid (beta-amyloid (Aβ42); [4]): No
O=C(O)c1cc(NCCCc2ccc(C(F)(F)F)cc2)ccc1O [Compound 42]	0.062	6.7	IC50 (beta-amyloid (Aβ42); [3]): 68.3 µM
O=C(O)c1cc(NCCCc2ccc(Cl)c(Cl)c2)ccc1O [Compound 43]	0.04	51.8	IC50 (beta-amyloid (Aβ42); [3]): 111 µM
O=C(O)c1cc(NCCCc2ccc(Cl)cc2Cl)ccc1O [Compound 44]	0.12	51	–
O=C(O)c1cc(NCCc2ccc(C(F)(F)F)c(F)c2)ccc1O [Compound 45]	0.1	20.7	–
O=C(O)c1cc(NCCc2ccc(O)cc2)ccc1O [Compound 47]	–	–	IC50 (cerebral cortical cell): 0.32 µM; IC50 [2]: 11.5 µM
O=C(O)c1cc(NCc2ccc(F)cc2)ccc1O [FBAS]	–	–	IC50 [1]: 0.3 µM
COc1ccc(CNc2ccc(O)c(C(=O)O)c2)cc1 [MBAS, 5-(4-methoxybenzyl)aminosalicylic acid]	–	–	IC50 ([1]; Mus musculus, Neuron): 1.42 µM
O=C(O)c1cc(NCc2ccc([N+](=O)[O-])cc2)ccc1O [NBAS, 5-(4-nitrobenzyl)aminosalicylic acid]	–	–	IC50 ([1]; Mus musculus, Neuron): 1.9 µM
O=C(O)c1cc(NCCc2ccc([N+](=O)[O-])cc2)ccc1O [NPAA, 5-[2-(4-nitrophenyl)-ethyl]aminosalicylic acid]	–	–	IC50 ([1]; Mus musculus, Neuron): 0.27 µM
O=C(O)c1cc(NCCc2ccc(OC(F)(F)F)cc2)ccc1O [chemical 16, 2-Hydroxy-5-[2-(4-trifluoromethoxy-phenyl)-ethylamino]-benzoic acid]	–	–	IC50 (beta-amyloid (Aβ42); [6]): 67.5 µM
O=C(O)c1cc(NCCc2ccc(F)c(F)c2)ccc1O [chemical 21, 5-[2-(3,4-Difluoro-phenyl)-ethylamino]-2-hydroxy-benzoic acid]	–	–	IC50 (beta-amyloid (Aβ42); [6]): 68 µM
O=C(O)c1cc(NCCc2ccc(Cl)cc2Cl)ccc1O [chemical 24, 5-[2-(2,4-Dichloro-phenyl)-ethylamino]-2-hydroxy-benzoic acid]	–	–	IC50 (beta-amyloid (Aβ42); [6]): 29.2 µM
O=C(O)c1cc(NCCCc2ccc(Cl)c(Cl)c2)ccc1O [chemical 43, 5-[3-(3,4-Dichloro-phenyl)-propylamino]-2-hydroxy-benzoic acid]	–	–	IC50 (beta-amyloid (Aβ42); [6]): 111 µM
